In ChEMBL document CHEMBL5375973, “Design and Synthesis of Novel Near-Infrared Fluorescence Probes Based on an Open Conformation of a Cytochrome P450 1B1 Complex for Molecular Imaging of Colorectal Tumors” (J Med Chem, 2023):

How the values were obtained:
[1] = Drug distribution in BALB/C mouse xenografted with human HCT-15 cells assessed as increase in photoacoustic signal in tumor at 12 nmol at iv administration observed after 24 hrs by photoacoustic imaging analysis; type: ADME, organism-based, Neoplasm; details: in vivo
[2] = Drug distribution in BALB/C mouse xenografted with human HCT-15 cells by measuring fluorescence intensity ratio in tumor at 12 nmol at iv administration observed after 2 hrs by IVIS imaging analysis; type: ADME, organism-based, Neoplasm; details: in vivo
[3] = Drug distribution in BALB/C mouse xenografted with human HCT-15 cells assessed as increase in photoacoustic signal in tumor at 12 nmol at iv administration observed after 2 hrs by photoacoustic imaging analysis; type: ADME, organism-based, Neoplasm; details: in vivo
[4] = Drug distribution in BALB/C mouse xenografted with human HCT-15 cells by measuring fluorescence intensity ratio in muscle tissue at 12 nmol at iv administration in presence of CYP1B1 inhibitor, ANF observed after 24 hrs by IVIS imaging analysis; type: ADME, organism-based; details: in vivo
[5] = Drug distribution in BALB/C mouse xenografted with human HCT-15 cells by measuring fluorescence intensity ratio in tumor at 12 nmol at iv administration observed after 4 hrs by IVIS imaging analysis; type: ADME, organism-based, Neoplasm; details: in vivo
[6] = Drug distribution in BALB/C mouse xenografted with human HCT-15 cells by measuring fluorescence intensity ratio in tumor at 12 nmol at iv administration observed after 24 hrs by IVIS imaging analysis; type: ADME, organism-based, Neoplasm; details: in vivo
Cytochrome P450 1B1 [7] = biological target: T1, Cytochrome P450 1B1 (Homo sapiens, UniProt Q16678); assay: Binding affinity to CYP1B1 in human HCT-15 cells assessed as increase in fluorescence signal at 0.5 to 1 uM incubated for 1 hr in presence of compound 14c by DAPI staining based confocal laser scanning microscopic analysis; type: ADME, cell-based; details: hct-15, 1 h, dose 0.5-1 µM
T1 sequence (Q16678 whole entry): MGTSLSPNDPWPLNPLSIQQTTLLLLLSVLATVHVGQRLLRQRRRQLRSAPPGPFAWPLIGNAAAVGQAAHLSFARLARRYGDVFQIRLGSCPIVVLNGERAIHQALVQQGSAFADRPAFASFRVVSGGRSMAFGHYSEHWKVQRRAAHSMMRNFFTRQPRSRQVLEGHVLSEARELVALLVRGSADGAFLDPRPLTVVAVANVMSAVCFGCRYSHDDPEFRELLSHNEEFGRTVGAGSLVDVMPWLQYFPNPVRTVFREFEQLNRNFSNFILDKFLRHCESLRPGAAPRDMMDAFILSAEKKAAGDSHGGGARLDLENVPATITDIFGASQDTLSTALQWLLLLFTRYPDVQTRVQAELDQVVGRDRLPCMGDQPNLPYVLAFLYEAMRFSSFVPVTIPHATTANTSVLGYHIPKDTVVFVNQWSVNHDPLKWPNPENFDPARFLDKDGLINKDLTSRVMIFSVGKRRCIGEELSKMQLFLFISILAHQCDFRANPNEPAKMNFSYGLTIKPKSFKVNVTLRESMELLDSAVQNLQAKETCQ

[8] = Stability of the compound assessed as drug degradation observed after 24 hrs by HPLC analysis; type: physicochemical
[9] = Drug distribution in BALB/C mouse xenografted with human HCT-15 cells by measuring fluorescence intensity ratio in tumor at 12 nmol at iv administration in presence of CYP1B1 inhibitor, ANF observed after 6 hrs by IVIS imaging analysis; type: ADME, organism-based, Neoplasm; details: in vivo
[10] = Drug distribution in BALB/C mouse xenografted with human HCT-15 cells assessed as increase in fluorescence intensity in tumor at 12 nmol at iv administration observed after 6 hr by IVIS imaging analysis; type: ADME, organism-based, Neoplasm; details: in vivo
[11] = Drug distribution in BALB/C mouse xenografted with human HCT-15 cells by measuring fluorescence intensity ratio in tumor at 12 nmol at iv administration observed after 6 hrs by IVIS imaging analysis; type: ADME, organism-based, Neoplasm; details: in vivo
[12] = Drug distribution in BALB/C mouse xenografted with human HCT-15 cells by measuring fluorescence intensity ratio in tumor at 12 nmol at iv administration in presence of CYP1B1 inhibitor, ANF observed after 2 hrs by IVIS imaging analysis; type: ADME, organism-based, Neoplasm; details: in vivo
[13] = Drug distribution in BALB/C mouse xenografted with human HCT-15 cells assessed as increase in fluorescence intensity in tumor at 12 nmol at iv administration in presence of CYP1B1 inhibitor, ANF observed after 2 to 6 hrs by IVIS imaging analysis; type: ADME, organism-based, Neoplasm; details: in vivo, time 2-6 hrs
HFF-1 = assay: Cytotoxicity against human HFF-1 cells at 1 to 10 uM incubated for 24 hrs by MTT assay; type: toxicity, cell-based; details: hff-1, 24 h, dose 1-10 µM
Cytochrome P450 1B1 [14] = biological target: T1, Cytochrome P450 1B1; assay: Binding affinity to CYP1B1 in human HCT-15 cells assessed as increase in fluorescence signal at nucleus at 0.5 to 1 uM incubated for 1 hr by DAPI staining based confocal laser scanning microscopic analysis; type: ADME, cell-based; details: hct-15, 1 h, dose 0.5-1 µM
[15] = Drug distribution in BALB/C mouse xenografted with human HCT-15 cells assessed as increase in photoacoustic signal in tumor at 12 nmol at iv administration observed after 6 hrs by photoacoustic imaging analysis; type: ADME, organism-based, Neoplasm; details: in vivo
[16] = Drug distribution in BALB/C mouse xenografted with human HCT-15 cells assessed as increase in fluorescence intensity in tumor at 12 nmol at iv administration observed after 2 hr by IVIS imaging analysis; type: ADME, organism-based, Neoplasm; details: in vivo
Cytochrome P450 1B1 [17] = biological target: T1, Cytochrome P450 1B1; assay: Binding affinity to CYP1B1 in human HCT-15 cells assessed as increase in fluorescence signal at 0.5 to 1 uM incubated for 1 hr by DAPI staining based confocal laser scanning microscopic analysis; type: ADME, cell-based; details: hct-15, 1 h, dose 0.5-1 µM
[18] = Drug distribution in BALB/C mouse xenografted with human HCT-15 cells by measuring fluorescence intensity ratio in muscle tissue at 12 nmol at iv administration observed after 24 hrs by IVIS imaging analysis; type: ADME, organism-based; details: in vivo
[19] = Drug distribution in BALB/C mouse xenografted with human HCT-15 cells assessed as increase in fluorescence intensity in liver at 12 nmol at iv administration observed after 24 hrs by IVIS imaging analysis; type: ADME, organism-based; details: in vivo
Cytochrome P450 1B1 [20] = biological target: T1, Cytochrome P450 1B1; assay: Binding affinity to CYP1B1 in human HCT-15 cells assessed as apparent dissociation constant incubated for 1 hr by flow cytometry analysis; type: ADME, cell-based; details: read-out: Kd(app)
Cytochrome P450 1B1 [21] = biological target: T1, Cytochrome P450 1B1; assay: Binding affinity to CYP1B1 in human HCT-15 cells assessed as increase in fluorescence signal at cytoplasm at 0.5 to 1 uM incubated for 1 hr by DAPI staining based confocal laser scanning microscopic analysis; type: ADME, cell-based; details: hct-15, 1 h, dose 0.5-1 µM
[22] = Drug distribution in BALB/C mouse xenografted with human HCT-15 cells by measuring fluorescence intensity ratio in tumor at 12 nmol at iv administration in presence of CYP1B1 inhibitor, ANF observed after 4 hrs by IVIS imaging analysis; type: ADME, organism-based, Neoplasm; details: in vivo
[23] = Drug distribution in BALB/C mouse xenografted with human HCT-15 cells by measuring fluorescence intensity ratio in tumor at 12 nmol at iv administration in presence of CYP1B1 inhibitor, ANF observed after 24 hrs by IVIS imaging analysis; type: ADME, organism-based, Neoplasm; details: in vivo
HCT-15 = assay: Cytotoxicity against human HCT-15 cells assessed as cell viability at 10 uM incubated for 24 hrs by MTT assay; type: functional; details: read-out: Activity
Cytochrome P450 1B1 [24] = biological target: T1, Cytochrome P450 1B1; assay: Binding affinity to CYP1B1 in human HFF-1 cells assessed as increase in fluorescence signal at 0.5 to 1 uM incubated for 1 hr by DAPI staining based confocal laser scanning microscopic analysis; type: ADME, cell-based; details: hff-1, 1 h, dose 0.5-1 µM

CCN1/C(=C/C=C/C=C/C2=[N+](CCCCCC(=O)NCCOCCOCCOCCOc3cc(F)cc(-c4cc(=O)c5cc(OC)c6c(OC)ccc(OC)c6c5o4)c3)c3ccc4c(S(=O)(=O)[O-])cc(S(=O)(=O)O)cc4c3C2(C)C)C(C)(C)c2c1ccc1c(S(=O)(=O)O)cc(S(=O)(=O)O)cc21
Drug uptake [1]: Not Active
Ratio [2]: 1.92
Drug uptake [3]: Active
Ratio [4]: 12.1
Ratio [5]: 1.95
Ratio [6]: 1.69
Activity (Cytochrome P450 1B1 [7]): Not Active
Stability [8]: Stable
Ratio [9]: 1.32
Drug uptake [10]: Active
Ratio [11]: 2.15
Ratio [12]: 1.06
Drug uptake [13]: Not Active
Activity (HFF-1): Non-Toxic
Activity (Cytochrome P450 1B1 [14]): Active
Drug uptake [15]: Active
Drug uptake [16]: Active
Activity (Cytochrome P450 1B1 [17]): Active
Ratio [18]: 26.51
Drug uptake [19]: Active
Kd (Cytochrome P450 1B1 [20]): 0.0937 µM
Activity (Cytochrome P450 1B1 [21]): Active
Ratio [22]: 1.19
Ratio [23]: 1.34
viability at 10 µM (HCT-15): > 80%
Activity (Cytochrome P450 1B1 [24]): Not Active
